ChEMBL document CHEMBL1159099, “Structure and in vitro antitumor activity evaluation of brominated diterpenes from the red alga Sphaerococcus coronopifolius” (Bioorg Med Chem, 2010)
Active and inactive are the calls of the source. No cut-off for these calls is given here.

Legend:
[1] = Growth inhibition of human apoptosis-resistant U373 cells after 72 hrs by MTT assay; format: functional, cell-based, U-373MG ATCC; details: U373 MG
[2] = tested on: A549; assay: Growth inhibition of human apoptosis-resistant A549 cells after 72 hrs by MTT assay; format: functional, cell-based; details: A549, 72 h
[3] = Growth inhibition of human apoptosis-resistant OE21 cells after 72 hrs by MTT assay; format: functional, cell-based; details: OE21, 72 h
[4] = tested on: SK-MEL-28; assay: Growth inhibition of human apoptosis-resistant SK-MEL-28 cells after 72 hrs by MTT assay; format: functional, cell-based; details: SK-MEL-28, 72 h
[5] = tested on: PC-3; assay: Growth inhibition of human apoptosis-sensitive PC3 cells after 72 hrs by MTT assay; format: functional, cell-based; details: PC-3, 72 h
[6] = tested on: LoVo; assay: Growth inhibition of human apoptosis-sensitive LoVo cells after 72 hrs by MTT assay; format: functional, cell-based
[7] = tested on: U-373MG ATCC; assay: Cytostatic effect against human apoptosis-resistant U373 cells assessed as inhibition of cell entry into mitosis at 3 uM after 72 hrs by computer-assisted phase contrast microscopy; format: functional, cell-based
[8] = tested on: U-373MG ATCC; assay: Cytostatic effect against human apoptosis-resistant U373 cells assessed as increase in mitosis duration at 16 uM after 72 hrs by computer-assisted phase contrast microscopy; format: functional, cell-based
[9] = tested on: U-373MG ATCC; assay: Cytostatic effect against human apoptosis-resistant U373 cells at 7 uM assessed as induction of vacuolization after 72 hrs by computer-assisted phase contrast microscopy; format: functional, cell-based

IC50 [2] [µM] | IC50 [4] [µM] | IC50 [5] [µM] | IC50 [6] [µM] | Compound | IC50 [1] [µM] | IC50 [3] [µM] | inhibition [7] | inhibition [8] | inhibition [9]
28.6 | 26 | 25 | 23 | CC(C)[C@@H]1CC[C@H](O)[C@H]2[C@H]3[C@](C)(CC[C@@]21CBr)[C@@H](Br)CC[C@@]3(C)O | 25 | 20 |  |  | 
79 | > 100 | 35 | 63 | C=C1CC[C@@H]2[C@H]([C@@H]3[C@H](C)CC[C@H]13)C2(C)C | 71 | 83 |  |  | 
44 | 57 | 34 | 23 | C=C1CC[C@H]2[C@@H](C(C)C)CC[C@@H]2/C=C/[C@](C)(O)CC[C@H]1OC(C)=O [SPHAEROLLANE I] | 20 | 34 |  |  | 
42 | 38 | 30 | 28 | CC(=O)[C@H]1[C@@H]2[C@H]3CC[C@@H](C(C)C)[C@]3(C)CC[C@]2(C)[C@@H](Br)C[C@@H]1O [CORONONE] | 31 | 30 |  |  | 
3.7 | 5.2 | 3.7 | 2.8 | CC(C)[C@@H]1CC=C[C@H]2[C@H]3[C@@](C)(C=CC(=O)[C@@]3(C)O)CC[C@]12CBr [SPHAEROCOCCENOL A] | 3.2 | 3 | Active |  | 
24 | 31 | 26 | 20 | CC(C)[C@@H]1C=C[C@H](O)[C@H]2[C@H]3[C@](C)(CC[C@@]21CBr)[C@@H](Br)CC[C@@]3(C)O [BROMOSPHAERODIOL] | 22 | 15 |  |  | 
38 | 43 | 30 | 26 | CC(C)[C@@H]1C[C@@H]2C[C@@]13CC[C@]1(C)[C@@H](Br)CC[C@@](C)(O)[C@H]1[C@@H]3[C@H]2O [BROMOTETRASPHAEROL] | 34 | 33 |  |  | 
19 | 22 | 12 | 9 | CC(C)[C@@H]1CC=C[C@H]2[C@@H]3[C@](C)(O)[C@@H](O)C[C@H](Br)[C@@]3(C)CC[C@]12CBr | 16 | 19 |  | Active | 
18 | 21 | 8.1 | 5.3 | CC(C)[C@@H]1CC=C[C@H]2[C@H]3[C@](C)(CC[C@]12CBr)[C@@H](O)CC(=O)[C@@]3(C)O | 7.2 | 8.4 |  |  | Active
97 | 96 | 74 | 64 | CC(C)[C@@H]1CC[C@@H]2[C@@H](O)[C@H]3[C@](C)(CC[C@]21C)[C@@H](Br)CC[C@@]3(C)O [NEODOLASTANE] | 85 | 60 |  |  | 
28 | 29 | 26 | 26 | CC(C)[C@@H]1CC=C[C@H]2[C@@H]3[C@](C)(O)[C@H](O)C[C@H](Br)[C@@]3(C)CC[C@]12CBr | 25 | 25 |  |  | 
35 | 34 | 30 | 23 | CC(C)[C@@H]1CC=C[C@H]2[C@H]3[C@](C)(CC[C@]12CBr)[C@@H](Br)CC[C@@]3(C)O [BROMOSPHAEROL] | 30 | 28 |  |  | 
64 | 62 | 48 | 24 | C=C1CC[C@@]2(C)[C@H](/C=C/CC[C@H]1C(C)C)[C@](C)(O)[C@H](O)C[C@@H]2Br | 60 | 33 |  |  | 
63 | > 100 | 43 | 56 | CC(C)[C@]1(O)C[C@H]2C[C@H]3[C@H]4[C@](C)(CC[C@@]31C2)[C@@H](Br)CC[C@@]4(C)O | 75 | 64 |  |  | 

Compound | IC50 [2] [µM] | IC50 [4] [µM] | IC50 [5] [µM] | IC50 [6] [µM] | IC50 [1] [µM] | IC50 [3] [µM] | inhibition [7] | inhibition [8] | inhibition [9]
CC(C)[C@@H]1C=C[C@H](OO)[C@H]2[C@@H]3[C@](C)(O)[C@@H](O)C[C@H](Br)[C@@]3(C)CC[C@@]21CBr | 26 | 28 | 28 | 28 | 22 | 27 |  |  | 
CC(C)[C@@H]1C=C[C@H](OO)[C@H]2[C@@H]3[C@](C)(O)[C@H](O)C[C@H](Br)[C@@]3(C)CC[C@@]21CBr | 40 | 31 | 30 | 22 | 32 | 25 |  |  | 
